According to patent US20130101628A1 (NORTHWESTERN UNIVERSITY, priority 2011, published 2013):
* marks the point of attachment. Palmitoyl = CCCCCCCCCCCCCCCC(=O)*

Legend:
HUVECs = experiment: HUVEC survival after serum-starvation (Annexin V-PE apoptosis); type: cell-based, human; conditions: 1 μM in EBM, serum-starvation 24 hours; untreated 31.7%
Experimental: To evaluate cell survival, endothelial basal media (EBM) without growth factors (Lonza) was used to induce a serum-starvation. Cells were plated in 12 well plates and grown to confluence with standard growth media. […] Cells were grown in these conditions for 24 hours. Survival was quantified using Annexin V: PE staining with 7-AAD vital staining (BD Biosciences) following provided assay instructions and analyzed on a DakoCytomation CyAn. Survival was assessed by determining the fraction of cells that were apoptotic (Annexin V-PE positive).

[1] = test system: chicken chorioallantoic membrane (CAM); experiment: Shell-less chicken chorioallantoic membrane (CAM) angiogenesis assay; type: in vivo; conditions: 2 mM in PBS dried on coverslip, three days following treatment; saline 132%
Description: An established assay reflecting in vivo angiogenesis, the chicken chorioallantoic membrane (CAM) assay, was used to evaluate the angiogenic potential of the VEGF-PA of the present examples. This assay utilizes the extra-embryonic allantois, a tissue derived from the mesoderm that develops into a densely vascularized membrane. A common deviation from the traditional assay is to remove the shell and conduct the assay on a shell-less embryo, termed the shell-less CAM assay, as we have performed here. Fertilized white leghorn chicken eggs (Phil's Fresh Eggs, Forreston, Ill.) were received and cultured in a temperature controlled, humidified egg incubator. On embryonic day 3, eggs were cracked within a sterile tissue culture hood into round 100 mm petri dishes. Fertilized embryos were then transferred to a water-jacketed CO2 incubator, set to 37.5° C., 1% CO2 and 100% relative humidity. On embryonic day 10, the material treatment was dissolved at 2 mM in PBS, evaporated onto the surface of a 5 mm round glass cover slip, and placed facing down on top of the CAM (n=16/group). Digital images were captured through the eyepiece of a Nikon stereomicroscope and vessel density was quantified by the number of intersections of vessel structures with the edge of the cover slip and expressed relative to the initial time-point. Images were captured daily, beginning at embryonic day 10 and culminating on embryonic day 13, the standard range over which the CAM assay is performed. Additionally, images were assessed qualitatively for morphological differences in the CAM vasculature including spoking, branching and leakage.

CH3(CH2)14C(O)— VVAAKKKGKLTWQELYQLKYKGI-NH2 (Palmitoyl-VVAAKKKGKLTWQELYQLKYKGI-NH2; SMILES CCCCCCCCCCCCCCCC(=O)N[C@H](C(=O)N[C@H](C(=O)N[C@@H](C)C(=O)N[C@@H](C)C(=O)N[C@@H](CCCCN)C(=O)N[C@@H](CCCCN)C(=O)N[C@@H](CCCCN)C(=O)NCC(=O)N[C@@H](CCCCN)C(=O)N[C@@H](CC(C)C)C(=O)N[C@H](C(=O)N[C@@H](Cc1c[nH]c2ccccc12)C(=O)N[C@@H](CCC(N)=O)C(=O)N[C@@H](CCC(=O)O)C(=O)N[C@@H](CC(C)C)C(=O)N[C@@H](Cc1ccc(O)cc1)C(=O)N[C@@H](CCC(N)=O)C(=O)N[C@@H](CC(C)C)C(=O)N[C@@H](CCCCN)C(=O)N[C@@H](Cc1ccc(O)cc1)C(=O)N[C@@H](CCCCN)C(=O)NCC(=O)N[C@H](C(N)=O)[C@@H](C)CC)[C@@H](C)O)C(C)C)C(C)C) [VEGF-PA]
fraction of apoptotic cells (Annexin V-PE positive) (HUVECs): 10.2%±3.2% | blood vessels relative to the initial value [1]: 229%±19%
